This passage reports translational impairment and MIC results from patent EP4112728A1, “METHOD FOR I[…]-BINDING PEPTIDES” (ETH Zürich, priority 2021, dated 2023).

For assay [1], the system named is cspA promoter. Nature of the assay: Stress response assay, cold shock response (PcspA-gfp) indicating translation inhibition. It counts as cell-based, E. coli. The settings on record: GFP under cspA promoter, relative to inactive control HNP-1; one sided t-test, adj. p<0.05. The source says:
Lastly, the inventors characterized the 50 most growth inhibitory (38 SIMILARS, 12 PARENTS) peptides using different assays (FIG.18). The inventors first used two biosensor constructs, containing the cspA and recA promoters, which upon activation are indicative of translation impairment and DNA damage, respectively. […] Next, the inventors measured membrane damage by quantifying propidium iodide (PI) uptake.
The inventors selected peptide-expressing strains of rank 1-50, previously generated for the monoseptic growth assay. […] Moreover, two plasmids (cloning vector: puA66) containing either the promoter of the gene for recombinase A (PrecA) or for the gene for cold shock protein A (PcspA) were purified from the E. coli Alon collection. Both plasmids contained a transcriptional fusion of their promoter with a downstream gene for green fluorescent protein (gfp), an additional kanamycin resistance cassette and a pSC101 origin of replication. […] The inventors recorded OD and GFP expression (λEx 488 nm/λEm 530nm) after 1.5 h and 4.5 h using a Tecan Infinite 200 PRO (37 °C, 1.5 mm orbital shaking). For each strain, the inventors calculated the specific fluorescence change between the two time points (GFP/OD (4.5 h) - GFP/OD (1.5 h)). Statistical significance was calculated by one sided t-tests, adjusted for multiple testing by Benjamini-Hochberg, using the signal of HNP-13425 APD

Assay [2] relates to other clinically relevant Gram negative and positive bacteria. Nature of the assay: Minimal inhibitory concentration (MIC) against other strains. Type of assay: cell-based. The conditions noted are these: range over the strains tested (FIG.21).

A word on the MIC: it is the smallest concentration in the dilution series that meets the test's criterion for growth inhibition. High values mean a need for much substance, low ones inhibition by little substance.

As for VDKGGYLPRPTPPRPVYR [ID 7122], the translational impairment result in assay [1] is on record as “strongest indication for translational impairment”.

In assay [2], “GWFKKAWRKVKHAGRRVLDTAKGVGRHYLNNWLNRYR [ID 4545]” returned an MIC of 0.4 to 5.6 µM.
